# The source made the active and inactive calls. No cut-off for these calls is given here.
# What was measured:
# Bacillus subtilis [1] = assay: Antibacterial activity against L-4-oxalysine-resistant Bacillus subtilis 168 M2 assessed as inhibition of viable spore formation at 2 mM after 22 to 24 hrs; type: functional, subsp. subtilis str. 168 M2
# Bacillus subtilis [2] = assay: Antibacterial activity against Bacillus subtilis 168 1A1 after 24 hrs by CLSI method; type: functional
# Bacillus subtilis [3] = assay: Antibacterial activity against wild type Bacillus subtilis 168 1A1 assessed as inhibition of viable spore formation at 2 mM after 22 to 24 hrs; type: functional, subsp. subtilis str. 168 1A1
# Nucleic Acid [4] = assay: Binding affinity to Bacillus subtilis 168 1A1 lysine riboswitch 179 lysc by in-line probing assay; type: nucleic-acid assay, Bacillus subtilis subsp. subtilis str. 168
# Bacillus subtilis [5] = assay: Antibacterial activity against Bacillus subtilis 168 1A1 at 100 uM after 24 hrs by CLSI method; type: functional, organism-based; details: subsp. subtilis str. 168 1A1
# Nucleic Acid [6] = assay: Binding affinity to lysine riboswitch 179 lysc of Bacillus subtilis 168 M2 harboring adenosine deletion within 95 to 97 sequence in loop E of P2 motif; type: nucleic-acid assay, Bacillus subtilis subsp. subtilis str. 168
# Bacillus subtilis [7] = assay: Antibacterial activity against Bacillus subtilis 168 M1 harboring G163A mutation in P4 motif after 24 hrs by CLSI method; type: functional
# Bacillus subtilis [8] = assay: Antibacterial activity against Bacillus subtilis 168 M2 harboring adenosine deletion within 95 to 97 sequence in loop E of P2 motif after 24 hrs by CLSI method; type: functional
# Bacillus subtilis [9] = assay: Antibacterial activity against Bacillus subtilis 1A40 at 1 mM after 3 hrs by CLSI method; type: functional, organism-based
# Nucleic Acid [10] = assay: Binding affinity to Bacillus subtilis 168 1A1 lysine riboswitch 179 lysc; type: nucleic-acid assay, Bacillus subtilis subsp. subtilis str. 168
# Nucleic Acid [11] = assay: Binding affinity to lysine riboswitch 179 lysc of Bacillus subtilis 168 M1 harboring G163A mutation in P4 motif; type: nucleic-acid assay, Bacillus subtilis subsp. subtilis str. 168
# Bacillus subtilis [12] = assay: Antibacterial activity against wild type Bacillus subtilis 168 1A1 assessed as inhibition of viable spore formation at 0.2 mM after 22 to 24 hrs; type: functional, subsp. subtilis str. 168 1A1
# [13] = subsp. subtilis str. 168 1A1, 24 h
# [14] = subsp. subtilis str. 168 M1, 24 h
# [15] = subsp. subtilis str. 168 M2, 24 h
smiles,measurement,setting,value
NCC(=O)CCC(N)C(=O)O (racemic),Activity,Bacillus subtilis [1],9%
same,MIC,Bacillus subtilis [2]; [13],> 5 mM
same,Activity,Bacillus subtilis [3],47%
same,Kd,Nucleic Acid [4],> 1000 µM
CC(=N)NCCCC[C@H](N)C(=O)O [L-NIL],Activity,Bacillus subtilis [5],inactive
same,MIC,Bacillus subtilis [2]; [13],> 5 mM
same,Kd,Nucleic Acid [4],11 µM
C[N+](C)(C)CCCC[C@H](N)C(=O)O [TRIMETHYLLYSINE],MIC,Bacillus subtilis [2]; [13],> 5 mM
same,Kd,Nucleic Acid [4],> 1000 µM
CN[C@@H](CCCCN)C(=O)O,MIC,Bacillus subtilis [2]; [13],> 5 mM
same,Kd,Nucleic Acid [4],> 1000 µM
NCCCC[C@H](N)C(=O)O [LYSINE],Kd,Nucleic Acid [6],2.9 µM
same,MIC,Bacillus subtilis [7]; subsp. subtilis str. 168 M1,inactive
same,MIC,Bacillus subtilis [2]; subsp. subtilis str. 168 1A1,inactive
same,MIC,Bacillus subtilis [8]; subsp. subtilis str. 168 M2,inactive
same,Activity,Bacillus subtilis [9],inactive
same,Kd,Nucleic Acid [10],1.7 µM
same,Kd,Nucleic Acid [11],3 µM
same,Kd,Nucleic Acid [4],0.36 µM
CC(=O)N[C@@H](CCCCN)C(=O)O,MIC,Bacillus subtilis [2]; [13],> 5 mM
same,Kd,Nucleic Acid [4],> 1000 µM
NCCS(=O)(=O)C[C@H](N)C(=O)O,Activity,Bacillus subtilis [1],17%
same,Kd,Nucleic Acid [6],24 µM
same,Activity,Bacillus subtilis [5],Active
same,MIC,Bacillus subtilis [7]; [14],1.56 mM
same,MIC,Bacillus subtilis [2]; [13],0.026 mM
same,Activity,Bacillus subtilis [12],7%
same,MIC,Bacillus subtilis [8]; [15],3.44 mM
same,Activity,Bacillus subtilis [9],Active
same,Kd,Nucleic Acid [10],13 µM
same,Activity,Bacillus subtilis [3],0%
same,Kd,Nucleic Acid [11],14 µM
same,Kd,Nucleic Acid [4],2.5 µM
NCCOC[C@H](N)C(=O)O,Activity,Bacillus subtilis [1],65%
same,Kd,Nucleic Acid [6],75 µM
same,Activity,Bacillus subtilis [5],Active
same,MIC,Bacillus subtilis [7]; [14],1.56 mM
same,MIC,Bacillus subtilis [2]; [13],0.173 mM
same,Activity,Bacillus subtilis [12],71%
same,MIC,Bacillus subtilis [8]; [15],1.56 mM
same,Activity,Bacillus subtilis [9],Active
same,Kd,Nucleic Acid [10],26 µM
same,Activity,Bacillus subtilis [3],6%
same,Kd,Nucleic Acid [11],29 µM
same,Kd,Nucleic Acid [4],13 µM
CC(=O)NCCCC[C@H](N)C(=O)O,MIC,Bacillus subtilis [2]; [13],> 5 mM
same,Kd,Nucleic Acid [4],> 1000 µM
Nc1ccccc1C(=O)C[C@H](N)C(=O)O [L-KYNURENINE],MIC,Bacillus subtilis [2]; [13],> 5 mM
same,Kd,Nucleic Acid [4],> 1000 µM
NC/C=C/CC(N)C(=O)O (racemic),Activity,Bacillus subtilis [5],Active
same,MIC,Bacillus subtilis [7]; [14],> 5 mM
same,MIC,Bacillus subtilis [2]; [13],0.938 mM
same,MIC,Bacillus subtilis [8]; [15],> 5 mM
same,Activity,Bacillus subtilis [9],Active
same,Kd,Nucleic Acid [4],0.97 µM
Nc1cc(C[C@H](N)C(=O)O)ccc1O,MIC,Bacillus subtilis [2]; [13],> 5 mM
same,Activity,Bacillus subtilis [3],75%
same,Kd,Nucleic Acid [4],> 1000 µM
NCCSC[C@H](N)C(=O)O,Activity,Nucleic Acid [4]; subsp. subtilis str. 168 1A1,Active
N=C(N)NCCCC[C@H](N)C(=O)O,MIC,Bacillus subtilis [2]; [13],> 5 mM
same,Activity,Bacillus subtilis [9],inactive
same,Kd,Nucleic Acid [4],7 µM

# Reference: ChEMBL document CHEMBL1240320, “Antibacterial lysine analogs that target lysine riboswitches” (Nat Chem Biol, 2007)
